{"source": "patent US20260242410A1", "about": "“CRYSTALLINE FORMS OF A NEUROACTIVE STEROID” (Sage Therapeutics, Inc., priority 2022, published 2026)", "assay": "Stability of the crystalline solvate form on drying, followed by XRPD", "format": "physicochemical", "protocol": "XRPD analyses were performed using a PANalytical X′pert pro with PIXcel detector (128 channels), scanning the samples between 3 and 35° 20. Solid Compound (1) was gently ground to release any agglomerates and loaded onto a multi-well plate with a Mylar polymer film to support the sample. The multi-well plate was then placed into the diffractometer and analyzed using Cu K radiation (a1 λ=1.54060 Å; a2=1.54443 Å; β=1.39225 Å; a1: a2 ratio=0.5) running in transmission mode (step size 0.0130° 20, step time 18.87s) using 40 kV/40 mA generator settings. Data were visualized and images generated using the HighScore Plus 4.7 desktop application (PANalytical, 2017). The 20 position was calibrated using alumina powder reference standard on a monthly basis.\n100 mg of anhydrous Compound (1) was temperature cycled in 600 μL of acetone for 24 hours. Accordingly, 600 μL of acetone was added in 200 μL aliquots to a vile containing 100 mg of anhydrous Compound (1), to form a movable slurry. The vile was then capped, wrapped in parafilm and temperature cycled in an incubator shaker between ambient temperature and 40° C. with a 4 hour hold at each temperature. After 24 hours, the solid Compound (1) Acetone Solvate Form was isolated by centrifugation.\nApproximately 200 mg of anhydrous Compound (1) was weighed into a scintillation vial and 1 mL of DMSO added to form a slurry. The slurry was then temperature cycled between ambient temperature and 40° C. in 4 hour cycles for 48 hours. After this time, the sample was dried in a 40° C. oven. On removal from the oven, the sample remained wet, so the sample was isolated by centrifuge filtration and then dried under vacuum at ambient conditions over night. After drying, the sample was reanalyzed by XRPD to be Compound (1) DMSO Solvate Form.\nFIG. 4 depicts a non-normalized X-ray powder diffraction pattern for Compound (1) DMSO Solvate Form. The XRPD pattern was stable on drying under vacuum."}
{"compound": "COC[C@@]1(O)CC[C@H]2[C@@H](CC[C@@H]3[C@@H]2CC[C@]2(C)[C@@H](C(=O)Cn4nnc(C)n4)CC[C@@H]32)C1", "note": "[Compound (1) DMSO Solvate Form]", "values": [{"measurement": "XRPD pattern stability on drying", "setting": "drying under vacuum", "result": "stable"}]}
{"compound": "COC[C@@]1(O)CC[C@H]2[C@@H](CC[C@@H]3[C@@H]2CC[C@]2(C)[C@@H](C(=O)Cn4nnc(C)n4)CC[C@@H]32)C1", "note": "[Compound (1) Acetone Solvate Form]", "values": [{"measurement": "Crystallinity / XRPD pattern after gentle drying", "setting": "72 hours gentle drying at ambient temperature (no vacuum), repreparation by temperature cycling", "result": "the XRPD pattern had not changed, there was a significant drop in crystallinity"}, {"measurement": "Solid form obtained after complete drying", "setting": "complete drying of the product", "result": "produces crystalline anhydrous Compound (1)"}, {"measurement": "Crystallinity / XRPD pattern after gentle drying", "setting": "drying at 40° C. for 24 hours", "result": "significant loss in crystallinity, but negligible change in the XRPD pattern"}]}
